Results taken from PubChem BioAssay AID1963423 (Molecular Pharmacology Branch, DTP, NCI, 2024).

Tested on: 439559-082-T-J2-PDC complex spheroid growth
Experiment: Anticancer human tumor 439559-082-T-J2-PDC patient-derived colon adenocarcinoma cell line growth inhibition [Asc]
Settings: for IC50: curve of first compound; for viability, T/C: stronger effect = lower value; active = viability on the fitted dose curve at most 10% of control; inactive = the rest
Summary of the method: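 Tumor cells were grown as complex spheroids with human endothelial cells (HUVEC) and human mesenchymal stem cells as stroma. Agents were tested alone and in combination, in half-log steps down from the clinical Cmax, or from 10 microM where Cmax was unknown.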

[1] = second compound 0.00316 µM, first compound 0.0316 µM
[2] = second compound 0.00316 µM, first compound 0.1 µM
[3] = second compound 0.01 µM, first compound 0.0316 µM
[4] = second compound 0.01 µM, first compound 0.1 µM
[5] = second compound 0.0316 µM, first compound 0.0316 µM
[6] = second compound 0.0316 µM, first compound 0.1 µM
[7] = second compound 0.1 µM, first compound 0.0316 µM
[8] = second compound 0.1 µM, first compound 0.1 µM
[9] = second compound 0.316 µM, first compound 0.0316 µM
[10] = second compound 0.316 µM, first compound 0.1 µM
[11] = second compound 1 µM, first compound 0.0316 µM
[12] = second compound 1 µM, first compound 0.1 µM
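Note: spheroids exposed to agents for 7 days starting day 3 after seeding.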
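Throughout, for viability, T/C: percent of DMSO vehicle control viability with 100% = vehicle.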

Cc1nc(N2CCC3(CC2)COC(C)C3N)c(CO)nc1Sc1ccnc(N)c1Cl (centres undefined) + CCN1C(C(=O)NC23CCC(C(=O)O)(CC2)CC3)C(c2cccc(Cl)c2F)C2(C(=O)Nc3cc(Cl)ccc32)C12CCCCC2
inactive: viability, T/C (second compound 0.03 µM, first compound 0.00949 µM) 109% | viability, T/C (second compound 0.03 µM, first compound 0.03 µM) 110% | viability, T/C (second compound 0.03 µM, first compound 0.0949 µM) 106% | viability, T/C (second compound 0.03 µM, first compound 0.3 µM) 91.6% | viability, T/C (second compound 0.03 µM, first compound 0.949 µM) 91.7% | viability, T/C (second compound 0.03 µM, first compound 3 µM) 80.3% | viability, T/C (second compound 0.0949 µM, first compound 0.00949 µM) 107% | viability, T/C (second compound 0.0949 µM, first compound 0.03 µM) 109% | viability, T/C (second compound 0.0949 µM, first compound 0.0949 µM) 114% | viability, T/C (second compound 0.0949 µM, first compound 0.3 µM) 93.7% | viability, T/C (second compound 0.0949 µM, first compound 0.949 µM) 86.9% | viability, T/C (second compound 0.0949 µM, first compound 3 µM) 86.1% | viability, T/C (second compound 0.3 µM, first compound 0.00949 µM) 106% | viability, T/C (second compound 0.3 µM, first compound 0.03 µM) 111% | viability, T/C (second compound 0.3 µM, first compound 0.0949 µM) 105% | viability, T/C (second compound 0.3 µM, first compound 0.3 µM) 87.8% | viability, T/C (second compound 0.3 µM, first compound 0.949 µM) 91.2% | viability, T/C (second compound 0.3 µM, first compound 3 µM) 81.2% | viability, T/C (second compound 0.949 µM, first compound 0.00949 µM) 103% | viability, T/C (second compound 0.949 µM, first compound 0.03 µM) 113% | viability, T/C (second compound 0.949 µM, first compound 0.0949 µM) 115% | viability, T/C (second compound 0.949 µM, first compound 0.3 µM) 93.5% | viability, T/C (second compound 0.949 µM, first compound 0.949 µM) 93.2% | viability, T/C (second compound 0.949 µM, first compound 3 µM) 82.2% | viability, T/C (second compound 3 µM, first compound 0.00949 µM) 89.5% | viability, T/C (second compound 3 µM, first compound 0.03 µM) 96% | viability, T/C (second compound 3 µM, first compound 0.0949 µM) 97.4% | viability, T/C (second compound 3 µM, first compound 0.3 µM) 87.8% | viability, T/C (second compound 3 µM, first compound 0.949 µM) 77.9% | viability, T/C (second compound 3 µM, first compound 3 µM) 82.7%
> 3 µM: IC50 (second compound 0.03 µM) | IC50 (second compound 0.0949 µM) | IC50 (second compound 0.3 µM) | IC50 (second compound 0.949 µM) | IC50 (second compound 3 µM)

Cn1ncnc1[C@H]1c2n[nH]c(=O)c3cc(F)cc(c23)N[C@@H]1c1ccc(F)cc1 + CNC(C)C(=O)NC1CN(S(=O)(=O)c2cccc(S(=O)(=O)N3CCC4CCC(C(=O)NC(c5ccccc5)c5ccccc5)N4C(=O)C(NC(=O)C(C)NC)C3)c2)CCC2CCC(C(=O)NC(c3ccccc3)c3ccccc3)N2C1=O
< 0.000316 µM: IC50 (second compound 0.00316 µM)
inactive: viability, T/C (second compound 0.00316 µM, first compound 0.000316 µM) 46.7% | viability, T/C (second compound 0.00316 µM, first compound 0.001 µM) 41.6% | viability, T/C (second compound 0.00316 µM, first compound 0.00316 µM) 38.5% | viability, T/C (second compound 0.00316 µM, first compound 0.01 µM) 46.7% | viability, T/C [1] 56.8% | viability, T/C [2] 45% | viability, T/C (second compound 0.01 µM, first compound 0.000316 µM) 101% | viability, T/C (second compound 0.01 µM, first compound 0.001 µM) 101% | viability, T/C (second compound 0.01 µM, first compound 0.00316 µM) 105% | viability, T/C (second compound 0.01 µM, first compound 0.01 µM) 89% | viability, T/C [3] 95.2% | viability, T/C [4] 89.1% | viability, T/C (second compound 0.0316 µM, first compound 0.000316 µM) 102% | viability, T/C (second compound 0.0316 µM, first compound 0.001 µM) 94.8% | viability, T/C (second compound 0.0316 µM, first compound 0.00316 µM) 101% | viability, T/C (second compound 0.0316 µM, first compound 0.01 µM) 88.9% | viability, T/C [5] 104% | viability, T/C [6] 104% | viability, T/C (second compound 0.1 µM, first compound 0.000316 µM) 93.4% | viability, T/C (second compound 0.1 µM, first compound 0.001 µM) 101% | viability, T/C (second compound 0.1 µM, first compound 0.00316 µM) 97.2% | viability, T/C (second compound 0.1 µM, first compound 0.01 µM) 92.4% | viability, T/C [7] 103% | viability, T/C [8] 104% | viability, T/C (second compound 0.316 µM, first compound 0.000316 µM) 99.8% | viability, T/C (second compound 0.316 µM, first compound 0.001 µM) 93.5% | viability, T/C (second compound 0.316 µM, first compound 0.00316 µM) 93.1% | viability, T/C (second compound 0.316 µM, first compound 0.01 µM) 88.1% | viability, T/C [9] 97% | viability, T/C [10] 99.7% | viability, T/C (second compound 1 µM, first compound 0.000316 µM) 74.5% | viability, T/C (second compound 1 µM, first compound 0.001 µM) 72.2% | viability, T/C (second compound 1 µM, first compound 0.00316 µM) 79.5% | viability, T/C (second compound 1 µM, first compound 0.01 µM) 80.8% | viability, T/C [11] 87% | viability, T/C [12] 81.6%
> 0.1 µM: IC50 (second compound 0.01 µM) | IC50 (second compound 0.0316 µM) | IC50 (second compound 0.1 µM) | IC50 (second compound 0.316 µM) | IC50 (second compound 1 µM)

O=C(c1cc(Cc2n[nH]c(=O)c3ccccc23)ccc1F)N1CCN(C(=O)C2CC2)CC1 + CNC(C)C(=O)NC1CN(S(=O)(=O)c2cccc(S(=O)(=O)N3CCC4CCC(C(=O)NC(c5ccccc5)c5ccccc5)N4C(=O)C(NC(=O)C(C)NC)C3)c2)CCC2CCC(C(=O)NC(c3ccccc3)c3ccccc3)N2C1=O
> 10 µM: IC50 (second compound 0.01 µM) | IC50 (second compound 0.0316 µM) | IC50 (second compound 0.1 µM) | IC50 (second compound 0.316 µM) | IC50 (second compound 1 µM)
0.333 µM: IC50 (second compound 0.00316 µM)
inactive: viability, T/C [1] 54.7% | viability, T/C [2] 47.2% | viability, T/C (second compound 0.00316 µM, first compound 0.316 µM) 49.1% | viability, T/C (second compound 0.00316 µM, first compound 1 µM) 49.9% | viability, T/C (second compound 0.00316 µM, first compound 3.16 µM) 40.7% | viability, T/C (second compound 0.00316 µM, first compound 10 µM) 28.4% | viability, T/C [3] 94.2% | viability, T/C [4] 86.3% | viability, T/C (second compound 0.01 µM, first compound 0.316 µM) 93.2% | viability, T/C (second compound 0.01 µM, first compound 1 µM) 96% | viability, T/C (second compound 0.01 µM, first compound 3.16 µM) 113% | viability, T/C (second compound 0.01 µM, first compound 10 µM) 104% | viability, T/C [5] 103% | viability, T/C [6] 96.2% | viability, T/C (second compound 0.0316 µM, first compound 0.316 µM) 108% | viability, T/C (second compound 0.0316 µM, first compound 1 µM) 99.6% | viability, T/C (second compound 0.0316 µM, first compound 3.16 µM) 101% | viability, T/C (second compound 0.0316 µM, first compound 10 µM) 89.8% | viability, T/C [7] 99.8% | viability, T/C [8] 101% | viability, T/C (second compound 0.1 µM, first compound 0.316 µM) 99.2% | viability, T/C (second compound 0.1 µM, first compound 1 µM) 96.5% | viability, T/C (second compound 0.1 µM, first compound 3.16 µM) 99.2% | viability, T/C (second compound 0.1 µM, first compound 10 µM) 102% | viability, T/C [9] 105% | viability, T/C [10] 103% | viability, T/C (second compound 0.316 µM, first compound 0.316 µM) 102% | viability, T/C (second compound 0.316 µM, first compound 1 µM) 94.8% | viability, T/C (second compound 0.316 µM, first compound 3.16 µM) 99% | viability, T/C (second compound 0.316 µM, first compound 10 µM) 91.1% | viability, T/C [11] 81.9% | viability, T/C [12] 78.3% | viability, T/C (second compound 1 µM, first compound 0.316 µM) 93.5% | viability, T/C (second compound 1 µM, first compound 1 µM) 85.1% | viability, T/C (second compound 1 µM, first compound 3.16 µM) 95.7% | viability, T/C (second compound 1 µM, first compound 10 µM) 65.4%
